In US20110177105A1, “Novel Selective Inhibitors of Ubiquitin Specific Protease 7, the Pharmaceutical Compositions Thereof and Their Therapeutic Applications” (priority 2010, published 2011):

Experiments:
[1] = tested on: HCT116 colon cancer cells; experiment: HCT116 cell viability and proliferation assay (MTS); type: cell-based; details: Homo sapiens, HCT-116, HCT116, 72 hours, read-out: Cell viability (MTS): HCT116 Gl50 Day 3
Description: HCT116 colon cancer cells were obtained from ATCC (American Type Culture Collection), and maintained in Mc Coy's 5A medium containing 10% FBS, 3 mM glutamine and 1% penicillin/streptomycin. Cells were incubated at 37° C. in a humidified atmosphere containing 5% CO2.
Cell viability was assayed using the MTS technique in 96-well culture plates (CellTiter 96® Aqueous Non-Radioactive Cell Proliferation Assay, Promega) according to the manufacturer's instructions. MTS (3-(4,5-dimethyl-thiazol-2-yl)-5-(3-carboxy-methoxyphenyl)-2-(4-sulfophenyl)-2H-tetra-zolium) is a MTT-derived tetrazolium that is reduced in metabolically active cells into a soluble, cell-permeant formazan. The amount of formazan, detected by its absorbance at 492 nm is proportional to the number of living, metabolically active cells.
10^3 HCT116 cells were seeded per well. 24 hours later, the medium was changed and the cells treated in triplicate with the concentrations of each compound from 100 μM to 50 nM. The compounds were diluted in 100% DMSO, whose final concentration on cells was kept at 0.5%.
Cells were incubated with the compounds for 72 hours, and their viability then assayed by the addition of MTS for 2 hours. Absorbance at 492 nm was measured directly from the 96-well culture plates. GI50 (Growth Inhibition 50) concentrations for each compound were calculated using a sigmoidal variable slope fit (Prism 4.0, Graphpad Softwares). Values represent mean of three independent experiments.

UCH-L1 = target: T1, UCH-L1 (Homo sapiens, UniProt P09936); experiment: UCH-L1 activity assay (Ub-AMC); type: biochemical; details: 300 nM Ub-AMC, 2.5 nM enzyme
T1 sequence (P09936 1-223): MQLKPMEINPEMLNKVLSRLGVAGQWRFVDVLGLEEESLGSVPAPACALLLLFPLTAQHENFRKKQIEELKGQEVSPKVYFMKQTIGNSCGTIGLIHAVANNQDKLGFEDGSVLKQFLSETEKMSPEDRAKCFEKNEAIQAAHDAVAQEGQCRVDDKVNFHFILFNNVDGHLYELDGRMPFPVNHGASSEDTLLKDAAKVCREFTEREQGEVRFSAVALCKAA
Description: UCH-L1 was diluted in USP buffer (50 mM Tris HCl; 0.5 mM EDTA; 5 mM DTT; 0.01% Triton X-100; Bovine Serum Albumin 0.05 mg·ml^−1 pH 7.6). Compounds stocks (100 mM) were stored at −20° C. in DMSO. Compounds were tested at different concentrations: from 200 μM to 91 nM.
Reactions were performed as duplicates in Black 384 well plates (small volume microplates; Greiner; 10 μl final reaction volume). The substrate concentration for UCH-L1 was 300 nM Ub-AMC (Boston Biochem). The concentration of the enzyme (UCH-L1) in specificity assays was 2.5 nM. The concentrations were determined in order to perform specificity assays under initial velocities at fixed substrate concentration. Compounds were pre-incubated with enzymes for 30 minutes at 25° C. Reactions were initiated by addition of substrate to the plates containing the enzymes (+/−compounds) diluted in assay buffer. Reactions were incubated for 60 minutes at 37° C. Reactions were stopped by adding acetic acid (100 mM final). Readings were performed on a Pherastar Fluorescent Reader (BMG). λ Emission 380 nm; λ Excitation=460 nm. Data (mean values+/−standard deviation) were analyzed as % of control (no compound) and plotted as percentage versus the Log of the compound concentration using GraphPad (Prism). Data were fitted to a sigmoidal model (variable slope).

USP5 = target: T2, USP5 (Homo sapiens, UniProt P45974); experiment: USP5 activity assay (Ub-AMC); type: biochemical; details: 300 nM Ub-AMC, 300 pM enzyme
T2 sequence (P45974 1-858): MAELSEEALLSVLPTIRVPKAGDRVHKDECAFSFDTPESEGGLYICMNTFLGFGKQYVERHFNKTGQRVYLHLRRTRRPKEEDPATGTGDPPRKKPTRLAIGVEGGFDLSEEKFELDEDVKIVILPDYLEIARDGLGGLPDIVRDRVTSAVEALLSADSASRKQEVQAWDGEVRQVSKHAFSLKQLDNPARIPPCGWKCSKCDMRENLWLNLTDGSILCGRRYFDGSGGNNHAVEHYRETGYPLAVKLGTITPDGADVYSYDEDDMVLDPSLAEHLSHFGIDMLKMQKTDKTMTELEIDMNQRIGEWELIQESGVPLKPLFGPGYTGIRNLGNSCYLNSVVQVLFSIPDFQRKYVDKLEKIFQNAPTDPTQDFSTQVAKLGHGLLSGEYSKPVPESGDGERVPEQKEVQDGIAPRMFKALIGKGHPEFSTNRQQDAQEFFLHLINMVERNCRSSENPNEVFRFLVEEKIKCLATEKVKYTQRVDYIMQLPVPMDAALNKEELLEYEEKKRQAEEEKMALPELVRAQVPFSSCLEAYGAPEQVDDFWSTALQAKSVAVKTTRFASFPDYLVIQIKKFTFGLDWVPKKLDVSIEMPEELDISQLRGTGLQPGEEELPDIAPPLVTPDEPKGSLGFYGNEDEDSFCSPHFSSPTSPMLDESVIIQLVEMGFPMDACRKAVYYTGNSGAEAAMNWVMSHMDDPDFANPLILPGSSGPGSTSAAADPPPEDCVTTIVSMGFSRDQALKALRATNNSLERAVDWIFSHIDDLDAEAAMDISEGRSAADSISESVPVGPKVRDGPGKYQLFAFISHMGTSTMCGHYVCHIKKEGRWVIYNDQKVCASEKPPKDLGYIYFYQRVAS
Description: USP5 was diluted in USP buffer (50 mM Tris HCl; 0.5 mM EDTA; 5 mM DTT; 0.01% Triton X-100; Bovine Serum Albumin 0.05 mg·ml^−1 pH 7.6). Compounds stocks (100 mM) were stored at −20° C. in DMSO. Compounds were tested at different concentrations: from 200 μM to 91 nM.
Reactions were performed as duplicates in Black 384 well plates (small volume microplates; Greiner; 10 μl final reaction volume). The substrate concentration for USP5 was 300 nM Ub-AMC (Boston Biochem). The concentrations of the enzyme (USP5) in specificity assays was 300 pM. The concentrations were determined in order to perform specificity assays under initial velocities at fixed substrate concentration. Compounds were pre-incubated with enzymes for 30 minutes at 25° C. Reactions were initiated by addition of substrate to the plates containing the enzymes (+/−compounds) diluted in assay buffer. Reactions were incubated for 60 minutes at 37° C. Reactions were stopped by adding acetic acid (100 mM final). Readings were performed on a Pherastar Fluorescent Reader (BMG). λ Emission 380 nm; λ Excitation=460 nm. Data (mean values+/−standard deviation) were analyzed as % of control (no compound) and plotted as percentage versus the Log of the compound concentration using GraphPad (Prism). Data were fitted to a sigmoidal model (variable slope).

| SMILES | IC50 [1] | IC50 (UCH-L1) | IC50 (USP5) |
| --- | --- | --- | --- |
| CCN(CC)CCNC(=O)c1ccc2c(Cl)c3c(nc2c1)CCCC3 [Example 7, 9-Chloro-5,6,7,8-tetrahydro-acridine-3-carboxylic acid (2-diethylamino-ethyl)-amide] | 4.3 µM | > 200 µM | > 200 µM |
| O=C(NCCCN1CCCC1)c1ccc2c(Cl)c3c(nc2c1)CCCC3 [Example 8, 9-Chloro-5,6,7,8-tetrahydro-acridine-3-carboxylic acid (3-pyrrolidin-1-yl-propyl)-amide] | 5.9 µM | > 200 µM | > 200 µM |
| CN(C)CCNC(=O)c1ccc2c(Cl)c3c(nc2c1)CCCC3 [Example 11, 9-Chloro-5,6,7,8-tetrahydro-acridine-3-carboxylic acid (2-dimethylamino-ethyl)-amide] | 7.8 µM | > 200 µM | > 200 µM |
| O=C(c1ccc2c(Cl)c3c(nc2c1)CCCC3)N1CCCCCC1 [Example 12, Azepan-1-yl-(9-chloro-5,6,7,8-tetrahydro-acridin-3-yl)-methanone] | 20 µM | > 200 µM | > 200 µM |
| CCCN1CCN(CCCNC(=O)c2ccc3c(Cl)c4c(nc3c2)CCCC4)CC1 [Example 13, 9-Chloro-5,6,7,8-tetrahydro-acridine-3-carboxylic acid [3-(4-propyl-piperazin-1-yl)-propyl]-amide] | 5.9 µM | > 200 µM | > 200 µM |
| CN1CCN(CCCNC(=O)c2ccc3c(Cl)c4c(nc3c2)CCCC4)CC1 [Example 15, 9-Chloro-5,6,7,8-tetrahydro-acridine-3-carboxylic acid [3-(4-methyl-piperazin-1-yl)-propyl]-amide] | 7.4 µM | > 200 µM | > 200 µM |
| O=C(c1ccc2c(Cl)c3c(nc2c1)CCCC3)N1CCC(N2CCCCC2)CC1 [Example 16, [1,4′]Bipiperidinyl-1′-yl-(9-chloro-5,6,7,8-tetrahydro-acridin-3-yl)-methanone] | 13.5 µM | > 200 µM | > 200 µM |

The remaining compounds from weak to strong by IC50 [1], led by results:

| IC50 [1] | IC50 (UCH-L1) | IC50 (USP5) | SMILES |
| --- | --- | --- | --- |
| 5 µM | > 200 µM | > 200 µM | CCN1CCCC1CNC(=O)c1ccc2c(Cl)c3c(nc2c1)CCCC3 (stereo not drawn) [Example 2, 9-Chloro-5,6,7,8-tetrahydro-acridine-3-carboxylic acid (1-ethyl-pyrrolidin-2-ylmethyl)-amide] |
| 5 µM | > 200 µM | > 200 µM | CCN(CC)CCCNC(=O)c1ccc2c(Cl)c3c(nc2c1)CCCC3 [Example 10, 9-Chloro-5,6,7,8-tetrahydro-acridine-3-carboxylic acid (3-diethylamino-propyl)-amide] |
| 4.1 µM | > 200 µM | > 200 µM | CN(CCCNC(=O)c1ccc2c(Cl)c3c(nc2c1)CCCC3)Cc1ccccc1 [Example 14, 9-Chloro-5,6,7,8-tetrahydro-acridine-3-carboxylic acid [3-(benzyl-methyl-amino)-propyl]-amide] |
| 4 µM | > 200 µM | > 200 µM | CCCCN(CC)CCNC(=O)c1ccc2c(Cl)c3c(nc2c1)CCCC3 [Example 4, 9-Chloro-5,6,7,8-tetrahydro-acridine-3-carboxylic acid [2-(butyl-ethyl-amino)-ethyl]-amide] |
| 4 µM | > 200 µM | > 200 µM | CCN(CCCNC(=O)c1ccc2c(Cl)c3c(nc2c1)CCCC3)Cc1ccccc1 [Example 5, 9-Chloro-5,6,7,8-tetrahydro-acridine-3-carboxylic acid [3-(benzyl-ethyl-amino)-propyl]-amide] |
| 3.9 µM | > 200 µM | > 200 µM | CCCN(CCC)CCCNC(=O)c1ccc2c(Cl)c3c(nc2c1)CCCC3 [Example 6, 9-Chloro-5,6,7,8-tetrahydro-acridine-3-carboxylic acid (3-dipropylamino-propyl)-amide] |
| 3.6 µM | > 200 µM | > 200 µM | CC1CCCC(C)N1CCCNC(=O)c1ccc2c(Cl)c3c(nc2c1)CCCC3 (stereo not drawn) [Example 9, 9-Chloro-5,6,7,8-tetrahydro-acridine-3-carboxylic acid [3-(2,6-dimethyl-piperidin-1-yl)-propyl]-amide] |
| 3.5 µM | > 200 µM | > 200 µM | CCCN(CCC)CCNC(=O)c1ccc2c(Cl)c3c(nc2c1)CCCC3 [Example 3, 9-Chloro-5,6,7,8-tetrahydro-acridine-3-carboxylic acid (2-dipropylamino-ethyl)-amide] |
| 2 µM | > 200 µM | > 200 µM | Cc1cccc(CN2CCC(CNC(=O)c3ccc4c(Cl)c5c(nc4c3)CCCC5)CC2)c1 [Example 1, 9-Chloro-5,6,7,8-tetrahydro-acridine-3-carboxylic acid [1-(3-methyl-benzyl)-piperidin-4-ylmethyl]-amide] |
